{"source": "patent US20100234243A1", "about": "“PTU COMPOUNDS FOR PROMOTING THE IN VITRO CULTURE OF (HIGHLY PIGMENTED) MELANOCYTES” (L'OREAL, priority 2004, published 2010)", "type_in_all_cases": "cell-based, human", "key": {"[1]": {"system": "epidermis reconstructed from melanocytes of phototype VI (African)", "assay": "Depigmenting activity on reconstructed epidermis (luminance L* by colorimeter)", "conditions": "100 μM, topical, 3 applications for 5 days; FIG. 3", "experimental": "The epidermis reconstructed from melanocytes of phototype VI (African), prepared under the conditions of Example 2, is used to screen the depigmenting activity of active agents.\nThe test products—arbutin at 100 μM and vitamin C phosphate at 280 μM—are applied topically to said reconstructed epidermis: 3 applications (3 μM/sample) for 5 days from the 5th day of immersion.\nVitamin C phosphate at 280 μM is also applied systemically, i.e., in the culture medium, throughout the duration of the epidermal reconstruction.\nThe control is the measurement of luminance of the reconstructed epidermis in the absence of test product.\nOn epidermis reconstructed on BPER (Episkin®), since the dermal support is translucent, it cannot be evaluated directly on the samples. The latter are therefore de-epidermalized and then digested with a solution of proteinase K. The lysates obtained are filtered on DEAE cellulose, which retains the melanin. The luminance is then measured on the filter.\nThe luminance L*, or lightness, of the sample is measured using a colorimeter. The darker a sample is, the weaker its luminance."}, "[2]": {"system": "melanocytes of phototype VI (African)", "assay": "Determination of the non-cytotoxic concentration of PTU (cell adherence, observed under a microscope)", "conditions": "for adherent cells (viability): primary culture without PTU 80%", "experimental": "a) Preparation of a Primary Culture of […] Melanocytes: The melanocytes were obtained from a foreskin of a child according to the following protocol: the skin is cut into fragments of 6 mm and incubated at +4° C. overnight in the presence of 0.25% trypsin. The epidermis is then separated from the dermis in foetal calf serum. The pieces of dermis are scraped in order to recover the basal cells and the melanocytes. The epidermal fragments are then vortexed and the cells are then centrifuged at […] for 5 min. These cells (mixture of melanocytes and keratinocytes) are counted and seeded at a density of 8 to 15×10^6 cells per 75 cm^2 flask, in 18 to 20 ml of M2 medium (Promocell). The melanocytes are then purified according to the following protocol: the culture medium is changed 3 times a week and when the cells are confluent, the flasks are emptied and rinsed once with PBS-Ca^2+Mg^2+. 3 ml of trypsin-EDTA are then added per flask and the flasks are incubated at ambient temperature for 3-4 min: the melanocytes detach whereas the keratinocytes remain attached to the flask. An equivalent volume of M2 medium is added and the detached cells are counted and seeded at a density of 10^6 cells per 75 cm^2 flask, in 18 to 20 ml of M2 medium (Promocell). A primary culture of […] human melanocytes is thus obtained. The trypsinization is repeated when the melanocytes reach confluency (passage 1 et seq.). The melanocytes in the primary culture are 80% viable, i.e., 80% of the melanocytes adhere to the flask. b) Determination of the Non-Cytotoxic Concentration of PTU: Reversible Effect: Part of the primary culture of melanocytes is treated with PTU (Sigma) at the concentrations of 5 μM, 10 μM and 50 μM, at passage 2/3 or preferably from the first passage. The cytotoxicity of the effect of the PTU is evaluated by observing the cells under a microscope."}, "[3]": {"system": "melanocytes of phototype VI (African)", "assay": "Viability of melanocytes after freezing, thawing and re-culturing", "conditions": "PTU 10 μM before freezing; non-treated 5%", "experimental": "They are then centrifuged and the pellet is resuspended in foetal calf serum+10% DMSO at a concentration of 10^6 cells/ml. The cells are frozen in cryotubes at −80° C. After 24 h, the tubes are transferred into liquid nitrogen at −196° C. For the thawing, the tubes are placed in a water bath at 37° C. and, after rapid thawing, 5 ml of M2 medium are added. The cells are centrifuged at 190 g for 5 min, the pellet is resuspended in M2 medium, and the cells are seeded into a flask and re-cultured under the conditions described in a)."}, "[4]": {"system": "melanocytes of phototype VI (African)", "assay": "Pigmentation (luminance L*) and melanogenesis inhibition in melanocyte cultures", "experimental": "The pigmentation of the melanocytes of phototype VI (African), treated with 10 μM PTU or not treated, is measured by the value L* (luminance) of the cultures given by the spectrocolorimeter (FIG. 1). […] Melanin synthesis is decreased during treatment and becomes normal again in the absence of treatment. The IC50 of PTU (i.e., the concentration of PTU for which 50% inhibition of melanogenesis is observed compared with the control on cultures of melanocytes of phototype VI (African), is evaluated from 50 μM to 100 μM."}, "[5]": {"system": "melanocytes of phototype VI (African) in reconstructed epidermis", "assay": "Functionality of PTU-multiplied melanocytes in reconstructed epidermis (DOPA reaction, Fontana-Masson staining)", "conditions": "melanocytes multiplied beforehand with 5 μM or 10 μM PTU, treatment stopped", "experimental": "The support is rinsed in the culture medium and then possibly coated with collagen type IV, fibronectin or laminin, for example. After contact at +4° C. overnight, the keratinocytes and the melanocytes of phototype VI (African) multiplied beforehand in the presence of 5 μM or 10 μM PTU, as described in Example 1, are then seeded onto said support. The culture can then be maintained immersed in a medium for keratinocytes in the presence of growth factor. After an incubation time of 3 to 5 days, the skin equivalent of phototype VI (African) undergoing formation is maintained at the air/liquid interface, for example by deposition onto a metal screen or removal of the culture medium present at the surface of an insert. The liquid then preferentially consists of the same nutritive medium as the previous one, but in which the growth factors have been reduced. The incubation then continues until a skin equivalent of phototype VI (African) is obtained. Thus, the incubation continues for a period of from 5 to 30 days, preferentially from 7 to 10 days. The reconstructed skin model of phototype VI (African) thus produced comprises two entities, the support, dermal equivalent, and the epidermal equivalent, which can be physically separated from one another. […] This enzyme is responsible for the oxidation of tyrosine to […] (DOPA) and then for the oxidation of DOPA to DOPA-quinone. […]"}, "[6]": {"system": "melanocytes of phototype VI (African)", "assay": "Effect of PTU on proliferation of melanocytes (amount of cells obtained per passage)"}, "[7]": {"conditions": "PTU 5 μM or 10 μM added at passage 2/3, non-treated cells multiply 2-fold"}, "[8]": {"conditions": "PTU 10 μM added at passage 4/5, non-treated control factor of 2"}}, "data": [{"smiles": "OC[C@H]1O[C@@H](Oc2ccc(O)cc2)[C@H](O)[C@@H](O)[C@@H]1O", "note": "[arbutin]", "values": [{"measurement": "increase in luminance versus control", "setting": "[1]", "value": "1.8 points of L*"}]}, {"smiles": "S=C(Nc1ccccc1)Nc1nccs1", "note": "[PTU, 1-phenyl-3-(2-thiazolyl)-2-thiourea]", "values": [{"measurement": "adherent cells (viability)", "setting": "[2]; PTU 5 μM", "value": 95, "unit": "%"}, {"measurement": "adherent cells (viability)", "setting": "[2]; PTU 10 μM", "value": 95, "unit": "%"}, {"measurement": "cytotoxicity on melanocytes from African individuals", "setting": "[2]; PTU 50 μM, most of the cells detach", "value": "cytotoxic"}, {"measurement": "viable melanocytes after freezing, thawing and re-culturing", "setting": "[3]", "value": 80, "unit": "%"}, {"measurement": "IC50", "setting": "[4]; Homo sapiens, Melanocyte, cultures of melanocytes of phototype VI (African), read-out: IC50, concentration for 50% inhibition of melanogenesis compared with the control", "value": "50 to 100", "unit": "µM"}, {"measurement": "amount of pigment in the melanocytes (luminance L*)", "setting": "[4]; PTU 10 μM, effect reversible when treatment is stopped, FIG. 1", "value": "decreases the amount of pigment in the melanocytes"}, {"measurement": "amount of pigment excreted by the melanocytes into the medium", "setting": "[4]; after PTU treatment", "value": "reduced"}, {"measurement": "DOPA assay (tyrosinase DOPA-oxidase activity) of treated melanocytes", "setting": "[5]", "value": "reactive"}, {"measurement": "integration of treated melanocytes into the reconstructed epidermis", "setting": "[5]", "value": "integrate into the reconstructed epidermis"}, {"measurement": "multiplication of melanocytes", "setting": "[6]; PTU 5 μM instead of 10 μM, treated from the first passage", "value": "results of the same order of magnitude"}, {"measurement": "factor of stimulation of multiplication at passage 8", "setting": "[6]; [7]", "value": 5}, {"measurement": "factor of stimulation of multiplication at passage 9", "setting": "[6]; [7]", "value": 15}, {"measurement": "multiplication factor of treated cells at passage 8", "setting": "[6]; [8]", "value": 5}, {"measurement": "multiplication factor of treated cells at passage 9", "setting": "[6]; [8]", "value": 15}, {"measurement": "percentage viability during multiplication", "setting": "[6]; PTU 10 μM, non-treated control 80%", "value": 95, "unit": "%"}]}]}
